Measurements taken from patent US20100003228A1, “T-CELL VACCINE” (priority 2006, published 2010).
Where no end group is shown, it is not given here.

Tests used:
[1] = system: myelin reactive T cells in PBMCs; assay: EAA with positivity by Variance Evaluation Method or CPM Variance Method (clinical trials); format: cell-based, human; conditions: clinical trial population, RR-MS or CIS subjects
Text: The predetermined value may also be calculated using a Variance Evaluation Method as follows: • 1. EAAs may be run on a given patient population (minimum of 120 assays from 120 unique subjects) • 2. A “negative population” may be created by averaging all SI values<2.5 • 3. The Standard Deviation (SD) may be calculated for each peptide • 4. The following for each peptide may be then be calculated: • a. Average+1SD • b. Average+2SD • c. Average+3SD • 5. The following SIs may be considered above the predetermined value: • a. SI greater than or equal to the average+3SD • b. Any SI greater than or equal to 2.5
The predetermined value may also be evaluated using a Counts per Minute (CPM) Variance Method. This algorithm may set a comprehensive cutoff for all peptides within a given assay. It may be calculated as follows: • 1. EAAs may be run and the CPM for all control (media only, no antigen) wells averaged. • 2. The SD for CPM of the control wells may then be calculated. • 3. The following may then be calculated for the control wells: • a. Average+1SD • b. Average+2SD • c. Average+3SD • 4. Any peptide with an average CPM greater than or equal to the average+3SD of the control wells may be considered above the predetermined value.
Any peptide, either analyzed in an individual well or as averaged over wells run in triplicate, with an SI≧2.5, an SI≧average+3SD by the Variance Evaluation Method, or an SI≧average+3SD by the CPM variance method may be considered above the predetermined value, which may indicate a T cell(s) positive for reactivity to a peptide.
The peptides of Example 3 have been tested in 429 EAAs in clinical trials as follows. […] Pre-Vaccine EAAs have 158 positive out of 387 assays (40.8%), with Relapse Remitting MS patients (RRMS) showing 150 positive of 368 assays (40.8%), and Clinically Isolated Syndrome (CIS) patients showing 8 positive of 19 assays (42.1%).
Over the course of 6 months a study was conducted with 120 subjects meeting the criteria for the clinical trial.
The above mentioned population of subjects was evaluated by EAA using the Variance Evaluation Method and CPM Variance Method as described above, and deemed eligible for vaccine production. Of the 120 attempts to manufacture vaccine, there were 2 shipping failures (blood was not received within our stated criteria), 1 culture was lost to contamination and 5 samples arrived with low cell volume/yield. Of the remaining 112 subjects, vaccine was successfully generated in 89 subjects, with 22 still in production (98.9% of eligible samples, 92.5% of all samples completed). From this, a positive EAA was deemed predictive of the ability to manufacture a vaccine to therapeutic dose by methods disclosed herein.

[2] = system: myelin-reactive T cells; assay: Growth of myelin reactive T cell lines with low stimulation indices; format: cell-based, human
Text: Using the algorithms described above, statistically significant SIs as low as 1.3 have been observed and therefore should be able grow in response to antigen. To verify this ability, 5 cell lines across two patients are shown with an SI<2.0. The results are shown in Table 12 and FIG. 24, which indicate growth of these cell lines with only peptide antigen stimulation and common T cell growth factors.
PBMC for subject 1042 were run in the EAA, and […] were positive, including PLPm18 with an SI of 1.8, PLPm26 with an SI of 2.5 and PLPm28 with an SI of 2.5. […] PBMC for subject 1014 were run in the EAA, and 4 mixes were positive, including MBPm14 with an SI of 1.7, PLPm17 with an SI of 1.7, PLPm28 with an SI of 2.2 and MOGm6 with an SI of 1.9. […]
PBMCs were isolated via density gradient centrifugation from peripheral blood obtained through venipuncture into ACD-1 anticoagulant. PBMCs were plated at 2.5E+06 cells/well in 24 well plates. Antigen in the form of 16mer peptides identified in the EAA were added at a final concentration of 20 ug/ml. Interluekin-2 (IL-2) was added at a final concentration of 100 U/ml starting at 48 hours and IL-2 was added at the same concentration with each feeding or splitting of wells. Peptide restimulation in the presence of antigen presenting cells (APCs-autologous PBMCs irradiated at 3500 rad) was done at days 7, 14 and 21. Interleukin-15 (IL-15) was added at a final concentration of 5 ng/ml-20 ng/ml (lot specific) starting at day 14 and continued through the remainder of the culture period. Cells lines were all harvested by day 35 and had achieved expansions of 3.0-8.2 fold.

Substance | # of Subjects (frequency of identification) [1] | % of Subjects (frequency of identification) [1] [%] | also measured
MOGm23: mix of MOG 45 and MOG 46 (chain 1 CWKITLFVIVPVLGPL; chain 2 TLFVIVPVLGPLVALI) | 20 | 16.8 | 
PLPm32: mix of PLP 63 and PLP 64 (chain 1 ATLVSLLTFMIAATYN; chain 2 SLLTFMIAATYNFAVL) | 12 | 10.1 | 
PLPm24: mix of PLP 47 and PLP 48 (chain 1 QSIAFPSKTSASIGSL; chain 2 FPSKTSASIGSLCADA) | 7 | 5.9 | 
MOGm21: mix of MOG 41 and MOG 42 (chain 1 IENLHRTFDPHFLRVP; chain 2 HRTFDPHFLRVPCWKI) | 40 | 33.6 | 
MOGm2: mix of MOG 3 and MOG 4 (chain 1 RHPIRALVGDEVELPC; chain 2 RALVGDEVELPCRISP) | 6 | 5.0 | 
MOGm7: mix of MOG 13 and MOG 14 (chain 1 HLYRNGKDQDGDQAPE; chain 2 NGKDQDGDQAPEYRGR) | 5 | 4.2 | 
PLPm4: mix of PLP 7 and PLP 8 (chain 1 CFFGVALFCGCGHEAL; chain 2 VALFCGCGHEALTGTE) | 26 | 21.8 | 
MOGm3: mix of MOG 5 and MOG 6 (chain 1 GDEVELPCRISPGKNA; chain 2 ELPCRISPGKNATGME) | 4 | 3.4 | 
PLPm25: mix of PLP 49 and PLP 50 (chain 1 TSASIGSLCADARMYG; chain 2 IGSLCADARMYGVLPW) | 3 | 2.5 | 
MOGm22: mix of MOG 43 and MOG 44 (chain 1 DPHFLRVPCWKITLFV; chain 2 LRVPCWKITLFVIVPV) | 2 | 1.7 | 
MOGm6: mix of MOG 11 and MOG 12 (chain 1 RPPFSRVVHLYRNGKD; chain 2 SRVVHLYRNGKDQDGD) | 4 | 3.4 | Fold Expansion ([2]; subject 1014, Day 0): 1.3; Viable Cell Count, Count/well ([2]; subject 1014, Day 0): 2.50E+06; Viable Cell Count, Total Cells ([2]; subject 1014, Day 0): 3.00E+07; Fold Expansion ([2]; subject 1014, Day 17): 0.7; Viable Cell Count, Count/well ([2]; subject 1014, Day 17): 2.18E+06; Viable Cell Count, Total Cells ([2]; subject 1014, Day 17): 1.96E+07; Fold Expansion ([2]; subject 1014, Day 19): 1.3; Viable Cell Count, Count/well ([2]; subject 1014, Day 19): 4.27E+06; Viable Cell Count, Total Cells ([2]; subject 1014, Day 19): 3.84E+07; Fold Expansion ([2]; subject 1014, Day 28): 4.1; Viable Cell Count, Count/well ([2]; subject 1014, Day 28): 4.35E+06; Viable Cell Count, Total Cells ([2]; subject 1014, Day 28): 1.22E+08; Fold Expansion ([2]; subject 1014, Day 33): 4.4; Viable Cell Count, Count/well ([2]; subject 1014, Day 33): 4.71E+06; Viable Cell Count, Total Cells ([2]; subject 1014, Day 33): 1.32E+08; Fold Expansion ([2]; subject 1014, Day 35): 3.7; Viable Cell Count, Count/well ([2]; subject 1014, Day 35): 3.93E+06; Viable Cell Count, Total Cells ([2]; subject 1014, Day 35): 1.10E+08
MOGm24: mix of MOG 47 and MOG 48 (chain 1 IVPVLGPLVALIICYN; chain 2 LGPLVALIICYNWLHR) | 15 | 12.6 | 
FAVLKLMGRGTKF [PLP67] | 5 | 4.2 | 
PLPm11: mix of PLP 21 and PLP 22 (chain 1 LYGALLLAEGFYTTGA; chain 2 LLLAEGFYTTGAVRQI) | 4 | 3.4 | 
PLPm12: mix of PLP 23 and PLP 24 (chain 1 EGFYTTGAVRQIFGDY; chain 2 TTGAVRQIFGDYKTTI) | 1 | 0.8 | 
PLPm6: mix of PLP 11 and PLP 12 (chain 1 TGTEKLIETYFSKNYQ; chain 2 KLIETYFSKNYQDYEY) | 4 | 3.4 | 
MOGm5: mix of MOG 9 and MOG 10 (chain 1 TGMEVGWYRPPFSRVV; chain 2 VGWYRPPFSRVVHLYR) | 8 | 6.7 | 
MOGm20: mix of MOG 39 and MOG 40 (chain 1 LRGKLRAEIENLHRTF; chain 2 LRAEIENLHRTFDPHF) | 1 | 0.8 | 
PLPm22: mix of PLP 43 and PLP 44 (chain 1 CSAVPVYIYFNTWTTC; chain 2 PVYIYFNTWTTCQSIA) | 2 | 1.7 | 
MOGm19: mix of MOG 37 and MOG 38 (chain 1 VFLCLQYRLRGKLRAE; chain 2 LQYRLRGKLRAEIENL) | 6 | 5.0 | 
PLPm13: mix of PLP 25 and PLP 26 (chain 1 VRQIFGDYKTTICGKG; chain 2 FGDYKTTICGKGLSAT) | 3 | 2.5 | 
PLPm19: mix of PLP 37 and PLP 38 (chain 1 WLGHPDKFVGITYALT; chain 2 PDKFVGITYALTVVWL) | 11 | 9.2 | 
MOGm26: mix of MOG 51 and MOG 52 (chain 1 WLHRRLAGQFLEELRN; chain 2 RLAGQFLEELRNPF) | 9 | 7.6 | 
MOGm4: mix of MOG 7 and MOG 8 (chain 1 RISPGKNATGMEVGWY; chain 2 GKNATXMEVGWYRPPF; X not resolved here; also: mixture of MOG 7 and MOG 8) | 3 | 2.5 | 
